Activity calls are given as the source filed them. Peptide text beside a SMILES is read from it.
How the values were obtained:
[1] = biological target: T1, SH2 domain-containing protein 1A (Homo sapiens) (UniProt O60880); assay: (§1) Inhibition of recombinant 6-His-tagged SLAM associated protein SH2 domain (unknown origin) expressed in Escherichia coli BL21(DE3) binding to biotinyl-KKSLTIpYAQVQK-NH2 attached to NeutrAvidin-coated plates using p-nitrophenyl phosphate as substrate after 1 hr
T1 sequence (whole entry): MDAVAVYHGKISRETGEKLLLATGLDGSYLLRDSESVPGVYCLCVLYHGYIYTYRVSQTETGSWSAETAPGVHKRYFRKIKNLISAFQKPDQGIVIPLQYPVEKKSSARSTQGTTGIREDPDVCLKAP

[2] = biological target: T1, SH2 domain-containing protein 1A (Homo sapiens); assay: Inhibition of recombinant 6-His-tagged SLAM associated protein SH2 domain (unknown origin) expressed in Escherichia coli BL21(DE3) binding to biotinyl-KKSLTIpYAQVQK-NH2 attached to NeutrAvidin-coated plates using p-nitrophenyl phosphate as substrate at 100 uM after 1 hr
[3] = biological target: T1, SH2 domain-containing protein 1A (Homo sapiens); assay: Inhibition of recombinant 6-His-tagged SLAM associated protein SH2 domain (unknown origin) expressed in Escherichia coli BL21(DE3) binding to biotinyl-KKSLTIpYAQVQK-NH2 attached to NeutrAvidin-coated plates using p-nitrophenyl phosphate as substrate at 10 uM after 1 hr relative to control
[4] = biological target: T2, SH2 domain-containing protein 1A (Homo sapiens, UniProt O60880); assay: as §1
T2 sequence (O60880 whole entry): T1 sequence (whole entry)

[5] = biological target: T1, SH2 domain-containing protein 1A (Homo sapiens); assay: Inhibition of recombinant 6-His-tagged SLAM associated protein SH2 domain (unknown origin) expressed in Escherichia coli BL21(DE3) binding to biotinyl-KKSLTIpYAQVQK-NH2 attached to NeutrAvidin-coated plates using p-nitrophenyl phosphate as substrate up to 1 uM after 1 hr
[6] = biological target: T1, SH2 domain-containing protein 1A (Homo sapiens); assay: as §1, with “hr in presence of calf intestine phosphatase” for “hr”

Row | SMILES | inhibition [1] | inhibition [2] | fold change (FC) [3] | IC50 [4] [µM] | inhibition [5] | inhibition [6]
1 | NC(=O)[C@H](CC(=O)O)NC(=O)[C@@H](N)Cc1ccc2c(c1)COP(=O)(O)O2 | inactive | – | – | – | – | –
2 | CC(C)(C)OC(=O)NCCCC[C@H](NC(=O)[C@H](Cc1ccc2c(c1)COP(=O)(O)O2)NC(=O)OCC1c2ccccc2-c2ccccc21)C(N)=O | Dose-dependent effect | Active | 0.7 | 34 | – | –
3 | NC(=O)[C@H](Cc1ccccc1)NC(=O)[C@H](Cc1ccc2c(c1)COP(=O)(O)O2)NC(=O)OCC1c2ccccc2-c2ccccc21 | Dose-dependent effect | Active | 0.73 | 35 | – | –
4 | CC(=O)N[C@@H](CC(=O)O)C(=O)N[C@@H](CC(=O)O)C(=O)N1CCC[C@H]1C(=O)N[C@@H](CO)C(=O)N[C@@H](Cc1ccc(OP(=O)(O)O)cc1)C(=O)N[C@H](C(=O)N[C@@H](CC(N)=O)C(=O)N[C@H](C(=O)N[C@@H](CCC(N)=O)C(N)=O)C(C)C)C(C)C (HELM PEPTIDE1{[ac].D.D.P.S.[O=C([C@H](Cc1ccc(OP(=O)(O)O)cc1)N[*:1])[*:2]].V.N.V.Q.[am]}$$$$V2.0) | – | – | – | – | inactive | –
5 | NC(=O)[C@H](CC(=O)O)NC(=O)[C@H](Cc1ccc2c(c1)COP(=O)(O)O2)NC(=O)OCC1c2ccccc2-c2ccccc21 | Dose-dependent effect | Active | 0.55 | 17 | – | –
6 | COC(=O)[C@H](Cc1ccc2c(c1)COP(=O)(O)O2)NC(=O)[C@@H](NC(=O)OCC1c2ccccc2-c2ccccc21)[C@@H](C)O | – | Active | 0.82 | – | – | –
7 | COC(=O)[C@H](Cc1ccc2c(c1)COP(=O)(O)O2)NC(=O)[C@H](Cc1cn(C(c2ccccc2)(c2ccccc2)c2ccccc2)cn1)NC(=O)OCC1c2ccccc2-c2ccccc21 | – | Active | 1.06 | – | – | –
8 | COC(=O)[C@H](Cc1ccc2c(c1)COP(=O)(O)O2)NC(=O)[C@H](CC(=O)NC(c1ccccc1)(c1ccccc1)c1ccccc1)NC(=O)OCC1c2ccccc2-c2ccccc21 | – | Active | 1.06 | – | – | –
9 | CC(C)C[C@H](NC(=O)[C@H](Cc1ccc2c(c1)COP(=O)(O)O2)NC(=O)OCC1c2ccccc2-c2ccccc21)C(N)=O | – | Active | 0.99 | – | – | –
10 | COC(=O)[C@H](Cc1ccc2c(c1)COP(=O)(O)O2)NC(=O)[C@H](CCCCN)NC(=O)OCC1c2ccccc2-c2ccccc21 | – | Active | 1.05 | – | – | –
11 | CC(C)(C)OC(=O)n1cc(C[C@H](NC(=O)[C@H](Cc2ccc3c(c2)COP(=O)(O)O3)NC(=O)OCC2c3ccccc3-c3ccccc32)C(N)=O)c2ccccc21 | – | Active | 1.33 | – | – | –
12 | COC(=O)[C@H](Cc1ccc2c(c1)COP(=O)(O)O2)NC(=O)[C@@H]1CCCN1C(=O)OCC1c2ccccc2-c2ccccc21 | – | Active | 0.81 | – | – | –
13 | COC(=O)[C@H](Cc1ccc2c(c1)COP(=O)(O)O2)NC(=O)[C@H](Cc1c[nH]c2ccccc12)NC(=O)OCC1c2ccccc2-c2ccccc21 | – | Active | 0.94 | – | – | –
14 | NC(=O)[C@H](CO)NC(=O)[C@H](Cc1ccc2c(c1)COP(=O)(O)O2)NC(=O)OCC1c2ccccc2-c2ccccc21 | – | Active | 0.9 | – | – | –
15 | CC[C@H](C)[C@H](NC(=O)[C@@H](NC(=O)[C@H](CC(C)C)NC(=O)[C@H](CO)NC(=O)[C@H](CCCCN)NC(=O)[C@H](CCCCN)NC(C)=O)[C@@H](C)O)C(=O)N[C@@H](Cc1ccc(OP(=O)(O)O)cc1)C(=O)N[C@@H](C)C(=O)N[C@@H](CCC(N)=O)C(=O)N[C@H](C(=O)N[C@@H](CCC(N)=O)C(=O)N[C@@H](CCCCN)C(N)=O)C(C)C (HELM PEPTIDE1{[ac].K.K.S.L.T.I.[O=C([C@H](Cc1ccc(OP(=O)(O)O)cc1)N[*:1])[*:2]].A.Q.V.Q.K.[am]}$$$$V2.0) | Dose-dependent effect | – | – | – | – | inactive
16 | N=C(N)NCCC[C@H](NC(=O)[C@H](Cc1ccc2c(c1)COP(=O)(O)O2)NC(=O)OCC1c2ccccc2-c2ccccc21)C(N)=O | – | Active | 0.94 | – | – | –
17 | Cc1c(C)c(S(=O)(=O)NC(=N)NCCC[C@H](NC(=O)[C@H](Cc2ccc3c(c2)COP(=O)(O)O3)NC(=O)OCC2c3ccccc3-c3ccccc32)C(N)=O)c(C)c2c1OC(C)(C)C2 | – | Active | 0.94 | – | – | –
18 | NC(=O)CNC(=O)[C@H](Cc1ccc2c(c1)COP(=O)(O)O2)NC(=O)OCC1c2ccccc2-c2ccccc21 | – | Active | 1.07 | – | – | –
19 | COC(=O)[C@H](Cc1ccc2c(c1)COP(=O)(O)O2)NC(=O)[C@H](CCSC)NC(=O)OCC1c2ccccc2-c2ccccc21 | – | Active | 0.85 | – | – | –
20 | NC(=O)C[C@H](NC(=O)[C@H](Cc1ccc2c(c1)COP(=O)(O)O2)NC(=O)OCC1c2ccccc2-c2ccccc21)C(N)=O | – | Active | 1.29 | – | – | –
21 | COC(=O)[C@H](Cc1ccc2c(c1)COP(=O)(O)O2)NC(=O)[C@H](Cc1ccc(OC(C)(C)C)cc1)NC(=O)OCC1c2ccccc2-c2ccccc21 | – | Active | 0.96 | – | – | –
22 | COC(=O)[C@H](Cc1ccc2c(c1)COP(=O)(O)O2)NC(=O)[C@H](COC(C)(C)C)NC(=O)OCC1c2ccccc2-c2ccccc21 | – | Active | 0.85 | – | – | –
23 | COC(=O)[C@H](Cc1ccc2c(c1)COP(=O)(O)O2)NC(=O)[C@H](CO)NC(=O)OCC1c2ccccc2-c2ccccc21 | – | Active | 1.13 | – | – | –
24 | COC(=O)[C@H](Cc1ccc2c(c1)COP(=O)(O)O2)NC(=O)[C@H](Cc1ccc(O)cc1)NC(=O)OCC1c2ccccc2-c2ccccc21 | – | Active | 1.05 | – | – | –
25 | CC[C@H](C)[C@H](NC(=O)OCC1c2ccccc2-c2ccccc21)C(=O)N[C@@H](Cc1ccc2c(c1)COP(=O)(O)O2)C(=O)OC | – | Active | 1.51 | – | – | –
26 | COC(=O)[C@H](Cc1ccc2c(c1)COP(=O)(O)O2)NC(=O)[C@H](C)NC(=O)OCC1c2ccccc2-c2ccccc21 | – | Active | 0.89 | – | – | –
